# Test results taken from BindingDB's records for aid1799744 (Csar, 2012).
# pKi: −log10 of the molar value.
# Target: Mitogen-activated protein kinase 1 (Homo sapiens, UniProt P28482)
# Assay: Assay 1
# Mitogen-activated protein kinase 1, sequence (P28482 whole entry): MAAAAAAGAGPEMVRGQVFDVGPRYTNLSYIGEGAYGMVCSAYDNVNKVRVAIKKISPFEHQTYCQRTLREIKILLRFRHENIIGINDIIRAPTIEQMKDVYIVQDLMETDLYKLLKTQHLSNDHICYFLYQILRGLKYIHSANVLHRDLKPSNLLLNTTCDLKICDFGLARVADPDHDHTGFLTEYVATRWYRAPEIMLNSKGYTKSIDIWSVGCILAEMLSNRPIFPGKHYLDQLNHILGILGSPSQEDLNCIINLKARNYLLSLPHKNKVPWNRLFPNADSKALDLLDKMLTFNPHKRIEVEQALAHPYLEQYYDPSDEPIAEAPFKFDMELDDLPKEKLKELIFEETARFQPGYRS
row,pKi,Compound
1,5.70,Cc1cnc(Nc2ccccc2C#N)nc1-c1c[nH]c(C(=O)N[C@H](CO)c2ccccc2)c1 [erk000533]
2,8.05,Cc1cnc(N[C@H](CO)CC(C)C)nc1-c1c[nH]c(C(=O)N[C@H](CO)c2ccccc2)c1 [erk000514]
3,8.52,Cc1cnc(NNS(C)(=O)=O)nc1-c1c[nH]c(C(=O)N[C@H](CO)c2cccc(Cl)c2)c1 [erk000661]
4,8.70,Cc1cnc(NN2CCOCC2)nc1-c1c[nH]c(C(=O)N[C@H](CO)c2cccc(Cl)c2)c1 [erk000558]
5,7.82,Cc1cnc(NC(C)C)nc1-c1c[nH]c(C(=O)N[C@H](CO)c2cccc(F)c2)c1 [erk000536]
6,8.22,CC(C)Nc1ncc(Cl)c(-c2c[nH]c(C(=O)N(C)[C@H](CO)c3ccccc3)c2)n1 [erk000708]
7,5.43,CNc1ncc(C)c(-c2c[nH]c(C(=O)NCc3ccc(F)c(F)c3)c2)n1 [erk000056]
8,8.30,Cc1cnc(NN2CCCCC2)nc1-c1c[nH]c(C(=O)N[C@H](CO)c2cccc(Cl)c2)c1 [erk000621]
9,6.37,CCNc1ncc(C)c(-c2c[nH]c(C(=O)NCc3ccc(O)c(O)c3)c2)n1 [erk000485]
10,8.40,Cc1csc(Nc2ncc(C)c(-c3c[nH]c(C(=O)N[C@H](CO)c4cccc(Cl)c4)c3)n2)n1 [erk000652]
11,6.49,Cc1cnc(N)nc1-c1c[nH]c(C(=O)NCc2c(Cl)cccc2Cl)c1 [erk000627]
12,5.28,Clc1ccc(-c2n[nH]c3c2CCCC3)cc1 [erk000071]
13,5.40,Cc1cnc(N)nc1-c1cc(C(=O)N[C@H](CO)c2ccccc2)n(Cc2ccccc2)c1 [erk000319]
14,7.89,Cc1cnc(N[C@@H]2CCC[C@H](C)[C@@H]2C)nc1-c1c[nH]c(C(=O)N[C@H](CO)c2cccc(Cl)c2)c1 [erk000606]
15,6.42,Cc1cnc(Nc2ccccc2)nc1-c1c[nH]c(C(=O)N[C@H](COC(=O)[C@@H](N)C(C)C)c2ccccc2)c1 [erk000637]
16,8.52,Cc1cnc(N[C@H]2CCOC2)nc1-c1cc(C(=O)N[C@H](CO)c2ccccc2)n(C)c1 [erk000704]
17,6.33,CNc1ncc(C)c(-c2c[nH]c(C(=O)NCc3cccc(C(F)(F)F)c3)c2)n1 [erk000042]
18,7.70,CCC[C@@H](CO)Nc1ncc(C)c(-c2c[nH]c(C(=O)N[C@H](CO)c3ccccc3)c2)n1 [erk000551]
19,5.88,Cc1cnc(N[C@@H](C)COC(=O)C(C)C)nc1-c1c[nH]c(C(=O)N[C@H](COC(=O)C(C)C)c2cccc(Cl)c2)c1 [erk000677]
20,6.92,Cc1cnc(NCCN2CCOCC2)nc1-c1c[nH]c(C(=O)N[C@H](CO)c2ccccc2)c1 [erk000519]
21,6.25,Cc1cnc(N)nc1-c1c[nH]c(C(=O)NCc2cccc(C(F)(F)F)c2)c1 [erk000043]
22,7.68,Cc1cnc(N[C@H]2C[C@H]2CO)nc1-c1c[nH]c(C(=O)N[C@H](CO)c2ccccc2)c1 [erk000515]
23,8.10,Cc1cnc(Nc2ccc(Cl)cc2Cl)nc1-c1c[nH]c(C(=O)N[C@H](CO)c2ccccc2)c1 [erk000657]
24,8.15,Cc1cnc(N[C@H]2CCCC[C@H]2O)nc1-c1c[nH]c(C(=O)N[C@H](CO)c2ccccc2)c1 [erk000465]
25,7.57,Cc1cnc(NC[C@@H](C)O)nc1-c1c[nH]c(C(=O)N[C@H](CO)c2ccccc2)c1 [erk000463]
26,8.70,Cc1ccc(Nc2ncc(C)c(-c3c[nH]c(C(=O)N[C@H](CO)c4ccccc4)c3)n2)cc1C [erk000441]

row,pKi,Compound
1,8.30,Cc1cnc(NCC(F)(F)F)nc1-c1c[nH]c(C(=O)N[C@H](CO)c2ccccc2)c1 [erk000444]
2,8.52,Cc1ccc(Nc2ncc(C)c(-c3c[nH]c(C(=O)N[C@H](CO)c4ccccc4)c3)n2)c(C)c1 [erk000653]
3,7.24,CNc1ncc(C)c(-c2c[nH]c(C(=O)NCc3cccc4ccccc34)c2)n1 [erk000036]
4,9.40,Cc1cnc(Nc2ccccn2)nc1-c1c[nH]c(C(=O)N[C@H](CO)c2ccccc2)c1 [erk000517]
5,7.68,O=C(NCc1ccc2c(c1)CCO2)c1cc(-c2n[nH]cc2-c2cccc(Cl)c2)c[nH]1 [erk000232]
6,8.70,Cc1cnc(NC2CCCC2)nc1-c1c[nH]c(C(=O)N[C@H](CO)c2ccccc2)c1 [erk000516]
7,4.80,Cc1cnc(N)nc1-c1c[nH]c(C(=O)N[C@H](CCO)c2ccccc2)c1 [erk000306]
8,6.52,CN(Cc1ccccc1)C(=O)c1cc(-c2ccnc(Nc3ccccc3)n2)c[nH]1 [erk000059]
9,7.42,CC(=O)OC[C@@H](NC(=O)c1cc(-c2nc(Nc3ccccc3)ncc2C)c[nH]1)c1ccccc1 [erk000646]
10,7.89,CC[C@@H](COC(=O)COCCOCCOC)Nc1ncc(C)c(-c2c[nH]c(C(=O)N[C@H](CO)c3cccc(Cl)c3)c2)n1 [erk000699]
11,6.22,Cc1cnc(N)nc1-c1c[nH]c(C(=O)NCc2cccc3ccccc23)c1 [erk000037]
12,7.52,CC[C@@H](COC(=O)[C@@H](N)C(C)(C)C)Nc1ncc(C)c(-c2c[nH]c(C(=O)N[C@H](COC(=O)[C@@H](N)C(C)(C)C)c3cccc(Cl)c3)c2)n1 [erk000714]
13,7.12,CC[C@@H](C)Nc1ncc(C)c(-c2c[nH]c(C(=O)N[C@H](CO)c3cccc(C)c3)c2)n1 [erk000604]
14,7.85,Cc1cnc(NC[C@H]2CCCO2)nc1-c1c[nH]c(C(=O)N[C@H](CO)c2ccccc2)c1 [erk000497]
15,6.48,CC(=O)OC[C@H](C)Nc1ncc(C)c(-c2c[nH]c(C(=O)N[C@H](COC(C)=O)c3cccc(Cl)c3)c2)n1 [erk000682]
16,8.70,Cc1ccc(Nc2ncc(C)c(-c3c[nH]c(C(=O)N[C@H](CO)c4cccc(C)c4)c3)n2)cc1 [erk000586]
17,7.34,Cc1cnc(N[C@H]2CCC[C@@H]2OCc2ccccc2)nc1-c1c[nH]c(C(=O)N[C@H](CO)c2cccc(Cl)c2)c1 [erk000609]
18,7.17,CCNc1ncc(C)c(-c2c[nH]c(C(=O)NCc3cccc(O)c3)c2)n1 [erk000484]
19,8.00,Cc1cccc([C@@H](CO)NC(=O)c2cc(-c3nc(N[C@@H]4CCOC4)ncc3C)c[nH]2)c1 [erk000610]
20,7.57,Cc1cnc(Nc2cccc(Br)c2C)nc1-c1c[nH]c(C(=O)N[C@H](CO)c2ccccc2)c1 [erk000562]
21,6.10,CCNc1ncc(C)c(-c2c[nH]c(C(=O)NCc3ccccc3F)c2)n1 [erk000473]
22,8.30,CCn1cc(-c2nc(N[C@@H](C)CO)ncc2C)cc1C(=O)N[C@H](CO)c1cccc(Cl)c1 [erk000679]
23,8.52,Cc1cc(N)ccc1Nc1ncc(C)c(-c2c[nH]c(C(=O)N[C@H](CO)c3cccc(Cl)c3)c2)n1 [erk000668]
24,4.82,Cc1onc(-c2ccccc2)c1-c1ccn(C(=O)NC(C)C)n1 [erk000088]
25,8.30,Cc1cnc(NCC2CC2)nc1-c1c[nH]c(C(=O)N[C@H](CO)c2ccccc2)c1 [erk000453]
26,5.96,CCc1cnc(N)nc1-c1c[nH]c(C(=O)NCc2cccc3ccccc23)c1 [erk000070]

row,pKi,Compound
1,8.52,CCNc1ncc(C)c(-c2c[nH]c(C(=O)N[C@H](CO)c3ccccc3)c2)n1 [erk000041]
2,7.09,Cc1cnc(N)nc1-c1c[nH]c(C(=O)NCc2cccc(Cl)c2)c1 [erk000303]
3,7.60,Cc1cnc(Nc2ccccc2)nc1-c1c[nH]c(C(=O)NCc2ccc(F)c(Cl)c2)c1 [erk000398]
4,5.72,CCNc1ncc(C)c(-c2c[nH]c(C(=O)N[C@@H](C(C)=O)c3ccccc3)c2)n1 [erk000489]
5,6.92,CCNc1ncc(CC)c(-c2c[nH]c(C(=O)N[C@H](CO)c3ccccc3)c2)n1 [erk000060]
6,8.15,Cc1cnc(N[C@H]2CCC[C@H]2O)nc1-c1c[nH]c(C(=O)N[C@H](CO)c2cccc(Cl)c2)c1 [erk000612]
7,6.21,Cc1cnc(N)nc1-c1c[nH]c(C(=O)NCc2ccc(Cl)cc2)c1 [erk000302]
8,5.82,CCNc1ncc(C)c(-c2c[nH]c(C(=O)NCc3ccccc3O)c2)n1 [erk000480]
9,7.28,CCN(CC)c1ccc(Nc2ncc(C)c(-c3c[nH]c(C(=O)N[C@H](CO)c4ccccc4)c3)n2)c(C)c1 [erk000654]
10,6.11,Cc1cnc(NCc2ccncc2)nc1-c1c[nH]c(C(=O)N[C@H](CO)c2ccccc2)c1 [erk000579]
11,5.40,CCN(CC)CCNc1ncc(C)c(-c2c[nH]c(C(=O)NCc3ccc(F)c(F)c3)c2)n1 [erk000364]
12,8.30,Cc1cnc(NC(CO)CO)nc1-c1c[nH]c(C(=O)N[C@H](CO)c2ccccc2)c1 [erk000509]
13,7.89,CCNc1ncc(C)c(-c2c[nH]c(C(=O)N[C@H](CO)c3cccc(C(F)(F)F)c3)c2)n1 [erk000491]
14,7.52,CC(C)Nc1cc(-c2c[nH]c(C(=O)N[C@H](CO)c3cccc(Cl)c3)c2)ncn1 [erk000672]
15,7.96,Cc1cnc(NC2CC2)nc1-c1c[nH]c(C(=O)N[C@H](CO)c2cccc(F)c2)c1 [erk000542]
16,8.40,CCNc1ncc(C)c(-c2c[nH]c(C(=O)N[C@H](CO)c3cccc(C)c3)c2)n1 [erk000634]
17,6.82,Cc1cnc(Nc2c(Cl)cccc2Cl)nc1-c1c[nH]c(C(=O)N[C@H](CO)c2ccccc2)c1 [erk000564]
18,8.40,Cc1cnc(NC2CCCCC2)nc1-c1c[nH]c(C(=O)N[C@H](CO)c2cccc(Cl)c2)c1 [erk000643]
19,7.19,CCSc1ncc(C)c(-c2c[nH]c(C(=O)N[C@H](CO)c3ccccc3)c2)n1 [erk000544]
20,8.30,CC[C@@H](CO)Nc1ncc(C)c(-c2cc(C(=O)N[C@H](CO)c3cccc(Cl)c3)n(COC)c2)n1 [erk000694]
21,7.40,CN(C)c1sc(C#N)c2c1-c1nc(Nc3cccc(O)c3)ncc1CC2 [erk000499]
22,7.15,Cc1cnc(Nc2ccc3ncsc3c2)nc1-c1c[nH]c(C(=O)N[C@H](CO)c2cccc(Cl)c2)c1 [erk000665]
23,6.64,CCNc1ncc(C)c(-c2c[nH]c(C(=O)N[C@@H](CO)c3ccccc3F)c2)n1 [erk000486]
24,6.19,CCOC(=O)NNc1ncc(C)c(-c2c[nH]c(C(=O)N[C@H](CO)c3ccccc3)c2)n1 [erk000498]
25,7.82,CC[C@@H](COC(=O)C(C)C)Nc1ncc(C)c(-c2c[nH]c(C(=O)N[C@H](CO)c3cccc(Cl)c3)c2)n1 [erk000689]
26,5.80,CCNc1ncc(C)c(-c2c[nH]c(C(=O)N3CCc4ccccc4C3)c2)n1 [erk000058]

row,Compound,pKi
1,CCOP(=O)(OCC)OC[C@H](CC)Nc1ncc(C)c(-c2c[nH]c(C(=O)N[C@H](CO)c3cccc(Cl)c3)c2)n1 [erk000690],5.96
